Data taken from ChEMBL document CHEMBL1139830, “Glycosidic juvenogens: derivatives bearing alpha,beta-unsaturated ester functionalities” (2007).
Activity calls are given as the source filed them. No cut-off for these calls is given here.

System: Pyrrhocoris apterus
Assay: Juvenilizing effect assessed as inhibition of metamorphosis per individual in red firebug by drinking assay
Assay type: functional

Row | Compound | ID50 | Activity
1 | CCOC(=O)/C=C(\C)COc1ccc(C[C@H]2CCCC[C@@H]2O)cc1 | 0.32 µg | –
2 | CCOC(=O)/C=C(/C)COc1ccc(C[C@H]2CCCC[C@@H]2O)cc1 (stereo in doubt; Z-2a) | – | inactive
3 | CCOC(=O)/C=C(/C)COc1ccc(C[C@H]2CCCC[C@@H]2O[C@@H]2O[C@H](CO)[C@H](O)[C@H](O)[C@H]2O)cc1 | 3 µg | –
4 | CCOC(=O)/C=C(\C)COc1ccc(C[C@@H]2CCCC[C@@H]2O[C@@H]2O[C@H](CO)[C@@H](O)[C@H](O)[C@H]2O)cc1 | 0.0021 µg | –
5 | CCOC(=O)/C=C(/C)COc1ccc(C[C@H]2CCCC[C@@H]2O)cc1 (stereo in doubt; Z-2b) | – | inactive
6 | CCOC(=O)/C=C(/C)COc1ccc(C[C@H]2CCCC[C@@H]2O[C@@H]2O[C@H](CO)[C@@H](O)[C@H](O)[C@H]2O)cc1 (stereo in doubt; Z-14a) | – | inactive
7 | CCOC(=O)/C=C(/C)COc1ccc(C[C@@H]2CCCC[C@@H]2O)cc1 | 18 µg | –
8 | CCOC(=O)/C=C(\C)COc1ccc(C[C@H]2CCCC[C@@H]2O[C@@H]2O[C@H](CO)[C@H](O)[C@H](O)[C@H]2O)cc1 | 1.9 µg | –
9 | CCOC(=O)/C=C(/C)COc1ccc(C[C@@H]2CCCC[C@@H]2O[C@@H]2O[C@H](CO)[C@H](O)[C@H](O)[C@H]2O)cc1 | 2.3 µg | –
10 | CCOC(=O)/C=C(\C)COc1ccc(C[C@H]2CCCC[C@@H]2O[C@@H]2O[C@H](CO)[C@@H](O)[C@H](O)[C@H]2O)cc1 | 1.3 µg | –
11 | CCOC(=O)/C=C(/C)COc1ccc(C[C@@H]2CCCC[C@@H]2O[C@@H]2O[C@H](CO)[C@@H](O)[C@H](O)[C@H]2O)cc1 | 1.1 µg | –
12 | CCOC(=O)/C=C(/C)COc1ccc(C[C@H]2CCCC[C@@H]2O[C@@H]2O[C@H](CO)[C@@H](O)[C@H](O)[C@H]2O)cc1 (stereo in doubt; Z-14b) | – | inactive
13 | CCOC(=O)/C=C(\C)COc1ccc(C[C@@H]2CCCC[C@@H]2O)cc1 | 0.05 µg | –
14 | CCOC(=O)/C=C(\C)COc1ccc(C[C@@H]2CCCC[C@@H]2O[C@@H]2O[C@H](CO)[C@H](O)[C@H](O)[C@H]2O)cc1 | 0.11 µg | –
